Measured values: patent US20230398130A1, “METHODS AND COMPOSITIONS FOR DIFFERENTIATING STEM CELLS” (Massachusetts Institute of Technology, priority 2020, published 2023)

Legend:
ISC-enriched organoids [1] = test: Primary screen, 384-well 2.5-D organoid differentiation (ENR+CD, 6 days): carbachol-induced lysozyme secretion (LYZ.S); format: cell-based, murine; settings: for Dose.FC.LYZ.S (log 2 fold change): vs plate median; for Dose.FC.LYZ.S: FC vs plate median
Text: (§1) High-throughput screening.

ISC-enriched organoids [2] = test: Primary screen, 384-well 2.5-D organoid differentiation (ENR+CD, 6 days): basal lysozyme secretion (LYZ.NS); format: cell-based, murine; settings: for Dose.FC.LYZ.NS (log 2 fold change): vs plate median; for Dose.FC.LYZ.NS: FC vs plate median; for Z.LYZ.NS: standard z score of FC
Text: as §1

ISC-enriched organoids [3] = test: Primary screen, 384-well 2.5-D organoid differentiation (ENR+CD, 6 days, Target Selective Inhibitor Library, vs whole-plate median): ATP (CellTiter-Glo 3D, CTG); settings: for Dose.FC.CTG (log 2 fold change): vs plate median; for Dose.FC.CTG: FC vs plate median; for Z.CTG: standard z score of FC

Row | Structure (SMILES) | Dose.FC.LYZ.S (log 2 fold change) (ISC-enriched organoids [1]; Dose 0.08 uM, primary screen) | Dose.FC.LYZ.S (log 2 fold change) (ISC-enriched organoids [1]; Dose 0.40 uM, primary screen) | Dose.FC.LYZ.S (log 2 fold change) (ISC-enriched organoids [1]; Dose 2.00 uM, primary screen) | Dose.FC.LYZ.S (log 2 fold change) (ISC-enriched organoids [1]; Dose 10.00 uM, primary screen) | Z.LYZ.NS (standard z score) (ISC-enriched organoids [2]; Dose 0.08 uM, primary screen) | Dose.FC.LYZ.NS (log 2 fold change) (ISC-enriched organoids [2]; Dose 0.08 uM, primary screen) | Z.LYZ.NS (standard z score) (ISC-enriched organoids [2]; Dose 0.40 uM, primary screen) | Dose.FC.LYZ.NS (log 2 fold change) (ISC-enriched organoids [2]; Dose 0.40 uM, primary screen) | Z.LYZ.NS (standard z score) (ISC-enriched organoids [2]; Dose 2.00 uM, primary screen) | Dose.FC.LYZ.NS (log 2 fold change) (ISC-enriched organoids [2]; Dose 2.00 uM, primary screen) | Z.LYZ.NS (standard z score) (ISC-enriched organoids [2]; Dose 10.00 uM, primary screen) | Dose.FC.LYZ.NS (log 2 fold change) (ISC-enriched organoids [2]; Dose 10.00 uM, primary screen) | Z.CTG (standard z score) (ISC-enriched organoids [3]; Dose 0.08 uM, primary screen) | Dose.FC.CTG (log 2 fold change) (ISC-enriched organoids [3]; Dose 0.08 uM, primary screen) | Z.CTG (standard z score) (ISC-enriched organoids [3]; Dose 0.40 uM, primary screen) | Dose.FC.CTG (log 2 fold change) (ISC-enriched organoids [3]; Dose 0.40 uM, primary screen) | Z.CTG (standard z score) (ISC-enriched organoids [3]; Dose 2.00 uM, primary screen) | Dose.FC.CTG (log 2 fold change) (ISC-enriched organoids [3]; Dose 2.00 uM, primary screen) | Z.CTG (standard z score) (ISC-enriched organoids [3]; Dose 10.00 uM, primary screen) | Dose.FC.CTG (log 2 fold change) (ISC-enriched organoids [3]; Dose 10.00 uM, primary screen) | other results
1 | Cl.NC(=O)c1cnc(N[C@@H]2CCCC[C@@H]2N)nc1Nc1cccc(-n2nccn2)c1 [PRT062607 (P505-15, BIIB057) HCl] | −0.033 | 0.122 | −0.123 | −0.298 | 0.037 | 0.004 | 0.194 | 0.022 | −0.280 | −0.032 | −1.837 | −0.211 | −0.219 | −0.092 | 0.191 | 0.080 | −0.179 | −0.075 | −0.788 | −0.330 | 
2 | O=C(NNc1ccccc1)c1ccncc1 [PluriSIn #1 (NSC 14613)] |  |  |  |  |  |  |  |  |  |  |  |  |  |  |  |  |  |  |  |  | Dose.FC.LYZ.S (ISC-enriched organoids [1]; Dose 0.08 uM, primary screen): 0.057 log 2 fold change; Dose.FC.LYZ.S (ISC-enriched organoids [1]; Dose 0.40 uM, primary screen): −0.007 log 2 fold change; Dose.FC.LYZ.S (ISC-enriched organoids [1]; Dose 2.00 uM, primary screen): −0.133 log 2 fold change; Dose.FC.LYZ.S (ISC-enriched organoids [1]; Dose 10.00 uM, primary screen): −0.372 log 2 fold change; Dose.FC.LYZ.NS (ISC-enriched organoids [2]; Dose 0.08 uM, primary screen): 0.083 log 2 fold change; Z.LYZ.NS (ISC-enriched organoids [2]; Dose 0.08 uM): 0.720; Dose.FC.LYZ.NS (ISC-enriched organoids [2]; Dose 0.40 uM, primary screen): 0.004 log 2 fold change; Z.LYZ.NS (ISC-enriched organoids [2]; Dose 0.40 uM): 0.039; Dose.FC.LYZ.NS (ISC-enriched organoids [2]; Dose 2.00 uM, primary screen): −0.107 log 2 fold change; Z.LYZ.NS (ISC-enriched organoids [2]; Dose 2.00 uM): −0.929; Dose.FC.LYZ.NS (ISC-enriched organoids [2]; Dose 10.00 uM, primary screen): −0.284 log 2 fold change; Z.LYZ.NS (ISC-enriched organoids [2]; Dose 10.00 uM): −2.475; Dose.FC.CTG (ISC-enriched organoids [3]; Dose 0.08 uM, primary screen): −0.146 log 2 fold change; Z.CTG (ISC-enriched organoids [3]; Dose 0.08 uM): −0.349; Dose.FC.CTG (ISC-enriched organoids [3]; Dose 0.40 uM, primary screen): −0.095 log 2 fold change; Z.CTG (ISC-enriched organoids [3]; Dose 0.40 uM): −0.226; Dose.FC.CTG (ISC-enriched organoids [3]; Dose 2.00 uM, primary screen): −0.433 log 2 fold change; Z.CTG (ISC-enriched organoids [3]; Dose 2.00 uM): −1.035; Dose.FC.CTG (ISC-enriched organoids [3]; Dose 10.00 uM, primary screen): −0.853 log 2 fold change; Z.CTG (ISC-enriched organoids [3]; Dose 10.00 uM): −2.038
3 | O=C(O)c1cc2cccc([N+](=O)[O-])c2[nH]1 [CRT0044876] |  |  |  |  |  |  |  |  |  |  |  |  |  |  |  |  |  |  |  |  | Dose.FC.LYZ.S (ISC-enriched organoids [1]; Dose 0.08 uM, ENR+CD, 6 days): −0.002 log 2 fold change; Dose.FC.LYZ.S (ISC-enriched organoids [1]; Dose 0.40 uM, ENR+CD, 6 days): 0.055 log 2 fold change; Dose.FC.LYZ.S (ISC-enriched organoids [1]; Dose 2.00 uM, ENR+CD, 6 days): 0.014 log 2 fold change; Dose.FC.LYZ.S (ISC-enriched organoids [1]; Dose 10.00 uM, ENR+CD, 6 days): −0.061 log 2 fold change; Dose.FC.LYZ.NS (ISC-enriched organoids [2]; Dose 0.08 uM, ENR+CD, 6 days): 0.016 log 2 fold change; Z.LYZ.NS (ISC-enriched organoids [2]; Dose 0.08 uM): 0.135; Dose.FC.LYZ.NS (ISC-enriched organoids [2]; Dose 0.40 uM, ENR+CD, 6 days): 0.034 log 2 fold change; Z.LYZ.NS (ISC-enriched organoids [2]; Dose 0.40 uM): 0.298; Dose.FC.LYZ.NS (ISC-enriched organoids [2]; Dose 2.00 uM, ENR+CD, 6 days): 0.047 log 2 fold change; Z.LYZ.NS (ISC-enriched organoids [2]; Dose 2.00 uM): 0.408; Dose.FC.LYZ.NS (ISC-enriched organoids [2]; Dose 10.00 uM, ENR+CD, 6 days): 0.032 log 2 fold change; Z.LYZ.NS (ISC-enriched organoids [2]; Dose 10.00 uM): 0.278; Dose.FC.CTG (ISC-enriched organoids [3]; Dose 0.08 uM, ENR+CD, 6 days): −0.171 log 2 fold change; Z.CTG (ISC-enriched organoids [3]; Dose 0.08 uM): −0.410; Dose.FC.CTG (ISC-enriched organoids [3]; Dose 0.40 uM, ENR+CD, 6 days): −0.040 log 2 fold change; Z.CTG (ISC-enriched organoids [3]; Dose 0.40 uM): −0.096; Dose.FC.CTG (ISC-enriched organoids [3]; Dose 2.00 uM, ENR+CD, 6 days): −0.081 log 2 fold change; Z.CTG (ISC-enriched organoids [3]; Dose 2.00 uM): −0.192; Dose.FC.CTG (ISC-enriched organoids [3]; Dose 10.00 uM, ENR+CD, 6 days): −0.099 log 2 fold change; Z.CTG (ISC-enriched organoids [3]; Dose 10.00 uM): −0.237
4 | Cc1ccc(C(=O)N(CCCN)[C@@H](c2oc3cc(Cl)ccc3c(=O)c2Cc2ccccc2)C(C)C)cc1 [SB743921] | −0.321 | −0.329 | −0.340 | −0.350 | −2.017 | −0.232 | −2.148 | −0.247 | −2.297 | −0.264 | −2.068 | −0.238 | −1.159 | −0.485 | −1.855 | −0.777 | −1.158 | −0.485 | −1.294 | −0.542 | 
